Results taken from US20250304914A1, “METHODS OF PRODUCING ENGINEERED IMMUNE CELLS” (Takeda Pharmaceutical Company Limited, priority 2022, published 2025).

Legend:
Format in all cases: cell-based
[1] = system: T cells; experiment: Rate of introduction of the CAR gene into T cells by flow cytometry (CAR-T production); settings: for CAR-positive rate: 0.0037%, 0.011%
Method: (§1) CAR-T cell culture medium: 2.6% OpTmizer Expansion Basal Supplement (Thermo Fisher Scientific), 1% L-Glutamine (Thermo Fisher Scientific), and 1% Streptomycine, 2% CTS Immune Cell SR (Thermo Fisher Scientific) were added to OpTmizer CTS T-Cell Expansion basal medium (Thermo Fisher Scientific) to prepare a basal cell culture medium. To this was added 20 IU/mL or 40 IU/mL of MACS GMP IL-2 (Miltenyi Biotec). Dimethyl Sulfoxide (DMSO) (Wako Pure Chemical Industries, Ltd) was added to the respective media to obtain the designated levels and used. After Leukopak (Hemacare) was thawed, the cells were diluted in CAR-T cell culture medium to less than or equal to 2.0×10^6 cells/mL (pre-production raw material). Cell suspension: MACS GMP T-Cell TransACT (Miltenyi Biotec)=17.5:1 were seeded in culture bags and cultured in about 48 hours (cell activation step). The activated cells were diluted in culture medium using a LOVO Cell processing system (Fresenius Kabi) or a centrifuge, seeded under 6.07×10^5 cells/cm^2 in culture bags that had been previously coated with Retronectin® (Takara Bio Co., Ltd.) and a retrovirus into which a CAR gene or a CAR gene, a IL-7 gene, and a CCL19 gene had been introduced, and cultured until the next day (gene transfer process). Culture bottles (G-REX, Wilson Wolf) were seeded under 2.2×10^6 cells/cm^2 and cultured for 3-7 days to produce CAR-T cells (final products). The CAR gene used has the base sequence encoding the amino acid sequence shown in SEQ ID NO: 1, IL-7 gene used has the base sequence encoding the amino acid sequence shown in SEQ ID NO: 2, and CCL19 gene used has the base sequence encoding the amino acid sequence shown in SEQ ID NO: 3 (the same applies to the following SK-HEP-1 cells). See Table 1 for the afore mentieond sequences. CAR introduction rates into T cells were determined using CAR-targeting antigens on a BD FACSCanto II flow cytometer (BD Biosciences). The immunophenotype of T cells was measured using an anti-CD4 antibody (clone SK3, cat #344604, BioLegend), an anti-CD8 antibody (clone SK1, cat #344710, BioLegend), an anti-CCR7 antibody (clone G043H7, cat #353204, BioLegend), an anti-CD45RA antibody (clone L48, cat #337167, BD Biosciences), an anti-CD27 antibody (clone 0323, cat #302836, BioLegend), and an anti-CD95 antibody (clone DX2, cat #305612, BioLegend), and CCR7/CD45RA/CD27/CD95 positive cells in a CD4 positive or CD8 positive T cell population were used as stem cell memory T cells, and CCR7/CD45RA positive cells other than these were used as naive T cells.

[2] = system: T cells; experiment: Immune phenotype of T cells by flow cytometry (naive and stem cell memory T cells, CAR-T production)
Method: as §1

[3] = system: NK92 cells; experiment: Introduction of mCherry gene into NK92 cells, flow cytometry
Method: NK92 cell culture medium: RPMI, L-Gln (+) (Thermo Fisher Scientific) was prepared by adding 20% FBS (Biosera Co., Ltd.). Dimethyl Sulfoxide (DMSO) (Wako Pure Chemical Industries, Ltd) was added to the respective media to obtain the designated levels and used. NK92 cells (ATCC) were diluted with NK92 cell culture medium so that they were 2.0×10^6 cells/mL or less, seeded under 6.07×10^5 cells/cm^2 on culture plates with or without DMSO for 2 days. After that, NK92 cells were cultured on retronectin (Takara Bio Co., Ltd.) and a retrovirus into which a mCherry gene had been introduced, and cultured for 2 days to introduce the mCherry gene into NK92 cells. mCherry positive NK92 cells were produced as described above. DMSO from 0.01% to 0.1% was added in the pre-cultre step before transduction during its production. After production, the rate of introduction of the mCherry-gene was measured by flow cytometry.

[4] = system: SK-HEP-1 cells; experiment: Introduction of CAR gene into SK-HEP-1 cells, flow cytometry; settings: Example 8, 0.1% DMSO in transduction step, FIG. 8A
Method: SK-HEP-1 cell culture medium: MEM, L-Gln (+) (Thermo Fisher Scientific) was prepared by adding 10% FBS (Biosera Co., Ltd.), 1% Non-essential amino acids (Fujifilm Wako Pure Chemical Industries, Ltd.), 1% Penicillin-Streptomycin solution (Fujifilm Wako Pure Chemical Industries, Ltd.), and 1 mM Sodium pyruvate (Fujifilm Wako Pure Chemical Industries, Ltd.). Dimethyl Sulfoxide (DMSO) (Wako Pure Chemical Industries, Ltd) was added to the respective media to obtain the designated levels and used. SK-HEP-1 cells (ATCC) were diluted with SK-HEP-1 cell culture medium so that they were 2.0×10^6 cells/mL or less, seeded under 6.07×10^5 cells/cm^2 on culture plates that had been coated with retronectin (Takara Bio Co., Ltd.) and a retrovirus into which a CAR gene had been introduced, and cultured for 4 days to introduce the CAR gene into SK-HEP-1 cells. CAR-T cells were produced as described above. SK-Hep-1 cell expressing CAR were produced as discussed above. 0.1% DMSO was added in the transduction_step during its production. After production, the rate of introduction of the CAR-gene was measured by flow cytometry.

[5] = Example 1, armored, activation step, 0.0037%, 0.011%, 0.033%, 0.1% DMSO vs no DMSO
[6] = Example 1, armored, activation step, 0.011%, 0.033%, 0.1% DMSO vs no DMSO
[7] = Example 3, armored, transduction step, 0.011%, 0.033%, 0.1%, 0.3% DMSO vs no DMSO
[8] = Example 6, unarmored, ex vivo expansion step, 0.3% DMSO vs no DMSO
[9] = Example 7, unarmored, ex vivo expansion step, 0.6-2.7% DMSO vs no DMSO

## C[S+](C)[O-] [DMSO, dimethyl sulfoxide]
[1]; Example 1, CAR-T expressing IL-7 and CCL19 (armored), 0.033%, 0.1% DMSO in activation step (heading, FIG. 1; text says transduction step), vs no DMSO group
  CAR-positive rate: significantly increased
[1]; Example 2, CAR-T (unarmored), 0.033%, 0.1%, 0.3% DMSO in activation step (heading, FIG. 2; text says transduction step), vs no DMSO group
  CAR-positive rate: significantly increased
[1]; Example 3, armored (IL-7, CCL19), gene transduction step, 0.033%, 0.1% DMSO vs no DMSO group
  CAR-positive rate: significantly increased
[1]; Example 4, unarmored, gene transduction step, 0.033% DMSO vs no DMSO group
  CAR-positive rate: increased
[1]; Example 8, 0.1% DMSO in transduction step, FIG. 8B
  CAR transduction efficiency (CAR-T): significantly improves
[2]; [5]
  CD8 positive naive T cells: significantly increased
  CD8 positive stem cell memory T cells: significantly increased
[2]; [6]
  CD4 positive naive T cells: significantly increased
  CD4 positive stem cell memory T cells: significantly increased
[2]; Example 2, unarmored, activation step, 0.0037%, 0.011%, 0.033%, 0.1%, 0.3% DMSO vs no DMSO
  CD4 positive stem cell memory T cells: significantly increased
[2]; Example 2, unarmored, activation step, 0.1% and 0.3% DMSO vs no DMSO
  CD8 positive stem cell memory T cells: significantly increased
[2]; Example 3, armored, transduction step, 0.0037%, 0.011%, 0.033%, 0.1% DMSO vs no DMSO
  CD8 positive stem cell memory T cells: increased
[2]; Example 3, armored, transduction step, 0.011% and 0.033% DMSO vs no DMSO
  CD8 positive naive T cells: increased
[2]; [7]
  CD4 positive naive T cells: significantly increased
  CD4 positive stem cell memory T cells: significantly increased
[2]; Example 4, unarmored, transduction step, 0.0037%, 0.011%, 0.033%, 0.01% and 0.3% DMSO vs no DMSO
  CD8 positive stem cell memory T cells: increased
[2]; Example 4, unarmored, transduction step, 0.011% and 0.033% DMSO vs no DMSO
  CD4 positive naive T cells: increased
[2]; Example 5, armored, ex vivo expansion step, 0.3% DMSO vs no DMSO
  CD8 positive stem cell memory T cells: significantly increased
[2]; [8]
  CD4 positive naive T cells: increased
  CD4 positive stem cell memory T cells: increased
[2]; [9]
  CD4 positive naive T cells: increased
  CD4 positive stem cell memory T cells: increased
  CD8 positive naive T cells: increased
  CD8 positive stem cell memory T cells: increased
[3]; Example 9, NK92 cells, 0.03% and 0.1% DMSO in pre-culture step 2 days before transduction, FIG. 9B
  mCherry transduction efficiency: significantly improves
[3]; FIG. 9B legend, 0.01%-0.1% DMSO added in preculture step before transduction
  transduction efficiency in NK92 cells (mCherry positive cells): improved
[4]
  CAR gene transduction in SK-Hep-1: suppresses
